Reference: ChEMBL document CHEMBL1201862, “PubChem BioAssay data set” (2004)
The source made the active and inactive calls.

How the values were obtained:
[1] = molecular target: T1, RNA-binding protein pos-1 (Caenorhabditis elegans, UniProt G5EF15); assay: inhibitors of POS-1/mex-3 RNA binding, dose response, biochemical, fluorescence polarization (AID 1964);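 also: purified POS-1 fused to maltose binding protein made in E. coli; potency of compounds blocking POS-1 binding to fluorescent RNA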
T1 sequence (G5EF15 whole entry): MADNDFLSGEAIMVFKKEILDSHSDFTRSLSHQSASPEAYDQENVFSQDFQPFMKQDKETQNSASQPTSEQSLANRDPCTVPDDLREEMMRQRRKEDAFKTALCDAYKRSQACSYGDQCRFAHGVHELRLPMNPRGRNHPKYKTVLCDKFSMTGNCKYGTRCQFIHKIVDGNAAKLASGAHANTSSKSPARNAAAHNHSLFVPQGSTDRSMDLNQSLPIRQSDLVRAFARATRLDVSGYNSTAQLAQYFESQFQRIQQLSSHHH

[2] = molecular target: T2, Zinc finger protein mex-5 (Caenorhabditis elegans, UniProt Q9XUB2); assay: MEX-5/TCR-2 RNA interaction inhibitors, dose response, biochemical, C. elegans, fluorescence polarization (AID 1960)
T2 sequence (Q9XUB2 whole entry): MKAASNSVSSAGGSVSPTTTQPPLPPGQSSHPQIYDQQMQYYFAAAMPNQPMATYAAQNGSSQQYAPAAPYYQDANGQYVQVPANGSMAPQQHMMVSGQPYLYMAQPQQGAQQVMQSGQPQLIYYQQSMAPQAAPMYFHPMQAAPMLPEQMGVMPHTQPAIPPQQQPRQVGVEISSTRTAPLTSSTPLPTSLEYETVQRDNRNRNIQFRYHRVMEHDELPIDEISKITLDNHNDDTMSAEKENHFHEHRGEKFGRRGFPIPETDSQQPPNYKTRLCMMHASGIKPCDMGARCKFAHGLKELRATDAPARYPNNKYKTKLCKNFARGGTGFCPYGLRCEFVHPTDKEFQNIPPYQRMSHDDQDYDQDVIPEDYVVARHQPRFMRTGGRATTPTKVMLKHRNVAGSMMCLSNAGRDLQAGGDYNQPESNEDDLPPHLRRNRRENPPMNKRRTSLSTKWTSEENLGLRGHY

[3] = molecular target: Induced myeloid leukemia cell differentiation protein Mcl-1 (Homo sapiens, UniProt Q07820); type: functional
[4] = molecular target: T3, Replicative DNA helicase DnaB (Mycobacterium tuberculosis, UniProt P9WMR3); assay: DnaB intein splicing inhibitors, dose response, biochemical, cell-free fluorescence (AID 449749); type: functional
T3 sequence (P9WMR3 whole entry): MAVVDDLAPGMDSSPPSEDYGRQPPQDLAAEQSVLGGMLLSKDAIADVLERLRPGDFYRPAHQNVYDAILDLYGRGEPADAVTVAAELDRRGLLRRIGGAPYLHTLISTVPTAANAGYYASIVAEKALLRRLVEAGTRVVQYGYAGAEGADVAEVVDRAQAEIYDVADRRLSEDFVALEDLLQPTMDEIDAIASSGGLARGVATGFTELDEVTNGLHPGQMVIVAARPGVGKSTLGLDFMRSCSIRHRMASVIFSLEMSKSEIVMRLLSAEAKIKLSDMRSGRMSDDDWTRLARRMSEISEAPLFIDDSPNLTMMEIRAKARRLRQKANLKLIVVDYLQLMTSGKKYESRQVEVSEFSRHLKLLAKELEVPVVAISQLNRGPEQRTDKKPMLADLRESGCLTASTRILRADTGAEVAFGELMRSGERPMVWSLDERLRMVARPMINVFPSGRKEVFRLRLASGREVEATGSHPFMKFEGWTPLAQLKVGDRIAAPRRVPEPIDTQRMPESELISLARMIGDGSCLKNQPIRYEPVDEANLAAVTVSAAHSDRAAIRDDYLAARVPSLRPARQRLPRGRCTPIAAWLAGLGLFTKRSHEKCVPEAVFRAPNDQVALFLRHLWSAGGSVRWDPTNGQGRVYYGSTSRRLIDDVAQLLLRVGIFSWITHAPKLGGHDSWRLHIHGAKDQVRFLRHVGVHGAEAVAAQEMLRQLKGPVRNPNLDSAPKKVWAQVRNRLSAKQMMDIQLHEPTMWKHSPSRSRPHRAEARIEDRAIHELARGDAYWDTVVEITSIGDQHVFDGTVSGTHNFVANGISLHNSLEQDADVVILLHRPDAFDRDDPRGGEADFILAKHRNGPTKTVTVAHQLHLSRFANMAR

Protein RecA = molecular target: T4, Protein RecA (Mycobacterium tuberculosis, UniProt P9WHJ3); assay: Fluorescence Cell-Free Homogeneous Dose Retest to Identify Inhibitors of RecA-Intein Splicing Activity. [Related pubchem assays (depositor defined):AID2097, AID2223, AID489010, AID492950]; type: functional
T4 sequence (P9WHJ3 whole entry): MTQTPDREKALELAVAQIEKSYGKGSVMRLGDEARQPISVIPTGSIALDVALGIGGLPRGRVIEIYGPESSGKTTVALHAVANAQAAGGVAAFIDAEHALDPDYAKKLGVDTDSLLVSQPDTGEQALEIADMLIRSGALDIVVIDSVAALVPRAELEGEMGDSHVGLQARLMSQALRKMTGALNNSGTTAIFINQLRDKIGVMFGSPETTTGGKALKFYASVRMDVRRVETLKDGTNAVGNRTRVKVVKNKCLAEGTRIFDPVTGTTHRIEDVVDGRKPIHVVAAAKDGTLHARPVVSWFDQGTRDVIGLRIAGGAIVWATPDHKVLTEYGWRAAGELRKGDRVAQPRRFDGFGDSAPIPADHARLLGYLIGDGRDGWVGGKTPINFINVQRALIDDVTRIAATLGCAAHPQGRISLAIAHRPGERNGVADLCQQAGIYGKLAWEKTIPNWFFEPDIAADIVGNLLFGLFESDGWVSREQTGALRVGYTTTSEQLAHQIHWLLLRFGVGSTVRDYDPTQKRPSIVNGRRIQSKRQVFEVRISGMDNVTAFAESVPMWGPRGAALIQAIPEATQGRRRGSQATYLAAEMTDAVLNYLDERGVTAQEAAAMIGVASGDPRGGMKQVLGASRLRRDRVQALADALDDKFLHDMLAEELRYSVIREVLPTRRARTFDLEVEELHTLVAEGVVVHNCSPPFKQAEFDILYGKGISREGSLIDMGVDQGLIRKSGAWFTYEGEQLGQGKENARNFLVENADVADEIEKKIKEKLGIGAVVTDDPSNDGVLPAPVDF

Genome polyprotein = Genome polyprotein (dengue virus type 2, UniProt P29990); assay: Dengue-2 NS5 methyltransferase inhibitors, primary screen, biochemical, confirmation dose response (AID 588689); type: functional
Genome polyprotein, sequence (P29990 2492-3391 limits assumed): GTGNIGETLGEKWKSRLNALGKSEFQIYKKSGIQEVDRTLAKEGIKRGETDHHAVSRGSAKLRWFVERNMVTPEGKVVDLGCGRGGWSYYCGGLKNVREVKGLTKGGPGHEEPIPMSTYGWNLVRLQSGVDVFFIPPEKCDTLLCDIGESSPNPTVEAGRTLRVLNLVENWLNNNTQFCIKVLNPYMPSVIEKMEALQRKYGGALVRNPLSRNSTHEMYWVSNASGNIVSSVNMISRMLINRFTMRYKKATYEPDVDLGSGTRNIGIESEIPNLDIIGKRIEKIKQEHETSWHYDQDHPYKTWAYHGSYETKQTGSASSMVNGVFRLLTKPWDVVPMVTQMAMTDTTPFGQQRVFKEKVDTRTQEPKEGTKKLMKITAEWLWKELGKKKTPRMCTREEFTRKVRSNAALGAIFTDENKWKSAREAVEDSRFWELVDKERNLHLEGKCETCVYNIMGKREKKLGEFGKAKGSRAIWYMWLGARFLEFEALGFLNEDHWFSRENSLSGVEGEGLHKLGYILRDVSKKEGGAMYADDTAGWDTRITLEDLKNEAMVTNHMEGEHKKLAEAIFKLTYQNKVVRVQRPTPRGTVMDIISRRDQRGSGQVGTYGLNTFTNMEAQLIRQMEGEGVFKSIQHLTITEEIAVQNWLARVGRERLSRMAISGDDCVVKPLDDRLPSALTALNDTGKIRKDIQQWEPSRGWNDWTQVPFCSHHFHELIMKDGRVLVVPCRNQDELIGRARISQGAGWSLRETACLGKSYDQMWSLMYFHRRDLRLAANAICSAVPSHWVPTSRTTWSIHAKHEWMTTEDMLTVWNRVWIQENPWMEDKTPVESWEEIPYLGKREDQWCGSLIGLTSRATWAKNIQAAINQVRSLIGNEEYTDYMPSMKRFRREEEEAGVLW

Induced myeloid leukemia cell differentiation protein Mcl-1, sequence (Q07820 whole entry): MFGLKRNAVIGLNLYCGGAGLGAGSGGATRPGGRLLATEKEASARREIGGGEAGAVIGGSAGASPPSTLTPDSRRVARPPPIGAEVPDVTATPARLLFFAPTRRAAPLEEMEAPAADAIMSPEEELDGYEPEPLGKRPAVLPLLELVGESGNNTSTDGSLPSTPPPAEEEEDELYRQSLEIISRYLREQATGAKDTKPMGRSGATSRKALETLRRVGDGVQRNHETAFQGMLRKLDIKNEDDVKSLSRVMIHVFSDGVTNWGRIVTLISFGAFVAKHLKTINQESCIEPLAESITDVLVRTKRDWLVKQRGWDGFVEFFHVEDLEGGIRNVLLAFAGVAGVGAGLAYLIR

Cc1cc(C)c(S(=O)(=O)Nc2cc(SCC(=O)O)c(O)c3ccccc23)cc1C
EC50 [1]: > 300 µM (not active) | EC50 [2]: 38.6 µM (active) | IC50 [3]: 10.5 µM (active) | AC50 [4]: 1.1 µM (active) | EC50 (Protein RecA): 0.277 µM (active)

O=C(O)c1cc(N2N=C(C(F)(F)F)/C(=C/C=C/c3ccco3)C2=O)ccc1Cl
IC50 [3]: 4.69 µM (active) | IC50 (Genome polyprotein): 24.2 µM (active)

O=C(/C=C/c1ccco1)NC(=S)Nc1cccc(C(=O)O)c1
EC50 [1]: 8.57 µM (active) | EC50 [2]: 8.73 µM (active)

CNCc1ccccc1Sc1ccc(O)c(O)c1
EC50 [1]: 34.8 µM (active) | EC50 [2]: 22.6 µM (inconclusive) | AC50 [4]: > 120 µM (inactive) | EC50 (Protein RecA): 2.57 µM (active) | IC50 (Genome polyprotein): 21.2 µM (active)
